Assay results taken from patent US7511144B2, “Reverse hydroxamic acid derivatives” (Kaken Pharmaceutical Co., Ltd., priority 2001, dated 2009).
Like-named read-outs stand apart in the source and are kept apart here.

Key:
Assay type in all cases: biochemical
TACE = target: T1, TACE (Homo sapiens, UniProt P78536); assay: TACE inhibition experiment (in vitro)
T1 construct: made in house; host or cells: mammalian cells or insect cells

Human MMP1 = target: T2, Human MMP1 (Homo sapiens, UniProt P03956); assay: MMP1 inhibition experiment; conditions: read-out: IC50 value MMP-1
T2 construct: purchased Calbiochem 444208
T2 sequence (P03956 100-469): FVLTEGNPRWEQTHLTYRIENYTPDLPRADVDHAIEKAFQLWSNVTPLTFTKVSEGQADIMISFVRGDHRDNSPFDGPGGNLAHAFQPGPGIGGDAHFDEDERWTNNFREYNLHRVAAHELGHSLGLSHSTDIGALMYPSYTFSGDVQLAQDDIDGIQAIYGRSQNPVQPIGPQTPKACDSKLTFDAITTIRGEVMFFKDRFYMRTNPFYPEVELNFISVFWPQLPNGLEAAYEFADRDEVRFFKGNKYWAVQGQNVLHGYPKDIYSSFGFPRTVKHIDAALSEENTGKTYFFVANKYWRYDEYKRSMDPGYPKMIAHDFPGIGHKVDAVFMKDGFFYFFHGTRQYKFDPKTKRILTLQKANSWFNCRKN
Method: This enzyme solution in amount of 10 μL was diluted to 90 μL with the assay buffer A, which was added to 90 μL of 20 μM fluorescent substrate (Dnp-Pro-Cha(β-cyclohexylalanyl)-Gly-Cys(Me)-His-Ala-Lys(Nma)-NH2) prepared in the assay buffer B, followed by reaction for 5 hours at 37° C.

Human MMP2 = target: T3, Human MMP2 (Homo sapiens, UniProt P08253); assay: MMP2 inhibition experiment; conditions: concentration required for 50% inhibition of enzyme activity; read-out: IC50 value MMP-2
T3 construct: purchased Calbiochem 444213
T3 sequence (P08253 110-660): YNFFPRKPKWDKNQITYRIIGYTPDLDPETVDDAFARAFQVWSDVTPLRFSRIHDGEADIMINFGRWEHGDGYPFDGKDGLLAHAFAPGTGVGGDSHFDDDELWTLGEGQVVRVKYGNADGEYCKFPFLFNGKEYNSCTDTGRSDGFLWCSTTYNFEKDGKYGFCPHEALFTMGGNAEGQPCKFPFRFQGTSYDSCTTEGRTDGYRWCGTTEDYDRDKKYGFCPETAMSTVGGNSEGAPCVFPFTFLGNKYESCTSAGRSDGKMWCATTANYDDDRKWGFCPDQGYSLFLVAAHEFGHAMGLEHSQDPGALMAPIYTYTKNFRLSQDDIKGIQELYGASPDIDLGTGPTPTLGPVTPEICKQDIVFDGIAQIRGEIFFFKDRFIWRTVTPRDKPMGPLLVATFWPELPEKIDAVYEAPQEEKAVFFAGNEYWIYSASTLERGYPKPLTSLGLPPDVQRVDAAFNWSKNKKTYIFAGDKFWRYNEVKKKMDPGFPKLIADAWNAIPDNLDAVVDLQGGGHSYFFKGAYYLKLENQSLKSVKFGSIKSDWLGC
Method: This enzyme solution in amount of 10 μL was diluted to 90 μL with the assay buffer A, which was added to 90 μL of 20 μM fluorescent substrate (MOCAc((7-methoxycoumarin-4-yl)acetyl)-Pro-Leu-Gly-Leu-A2pr(Dnp)-Ala-Arg-NH2, Peptide Institute, Inc., #3163-v) prepared in the assay buffer B, followed by reaction for 5 hours at 37° C.

Human MMP3 = target: T4, Human MMP3 (Homo sapiens, UniProt P08254); assay: MMP3 inhibition experiment; conditions: concentration required for 50% inhibition of enzyme activity; read-out: IC50 value MMP-3
T4 construct: purchased Calbiochem 444217
Method in brief: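 Fluorescence-quenched substrate NFF-3 (MOCAc/Dnp peptide, 20 μM as prepared) cleaved by 5 ng human MMP3 over 5 hours at 37° C, with inhibition measured from substrate fluorescence.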

Human MMP8 = target: T5, Human MMP8 (Homo sapiens, UniProt P22894); assay: MMP8 inhibition experiment; conditions: concentration required for 50% inhibition of enzyme activity; read-out: IC50 value MMP-8
T5 construct: purchased Calbiochem 444229
Method: MMP inhibition experiment may be carried out using a fluorescent synthetic substrate according to, for example, the methods of Bickett et al. (D. Mark Bickett et al., Anal. Biochem., 1993, 212, 58-64) and Nagase et al. (H. Nagase et al., J. Biol. Chem., 1994, 269, 20952-20957). The methods of inhibition experiments carried out for various MMPs are described below.
Human MMP8 (Calbiochem #444229) in amount of 90 μL (30 ng) was activated by mixing with 10 μL of 10 mM APMA, followed by reaction for 1 hour at 37° C. This enzyme solution in amount of 10 μL was diluted to 90 μL with the assay buffer A, which was added to 90 μL of […] fluorescent substrate (MOCAc-Pro-Leu-Gly-Leu-A2pr(Dnp)-Ala-Arg-NH2, Peptide Institute, Inc., #3163-v) prepared in the assay buffer B, followed by reaction for 5 hours at 37° C.

Human MMP9 = target: T6, Human MMP9 (Homo sapiens, UniProt P14780); assay: MMP9 inhibition experiment; conditions: read-out: IC50 value MMP-9
T6 construct: purchased Calbiochem 444231
Method: This enzyme solution in amount of 1 μL was diluted to 90 μL with the assay buffer A, which was added to 90 μL of 20 μM fluorescent substrate (Dnp-Pro-Cha-Gly-Cys(Me)-His-Ala-Lys(Nma)-NH2) prepared in the assay buffer B, followed by reaction for 4 hours at 37° C.

Human MMP13 = target: T7, Human MMP13 (Homo sapiens, UniProt P45452); assay: MMP13 inhibition experiment; conditions: concentration required for 50% inhibition of enzyme activity; read-out: IC50 value MMP-13
T7 construct: purchased Chemicon CC068
Method: Human MMP13 (Chemicon #CC068) in amount of 90 μL (200 ng) was activated by mixing with 10 μL of 10 mM APMA, followed by reaction for 1 hour at 37° C. This enzyme solution in amount of 0.6 μL was diluted to 90 μL with the assay buffer A, which was added to 90 μL of 20 μM fluorescent substrate (Dnp-Pro-Cha-Gly-Cys(Me)-His-Ala-Lys(Nma)-NH2) prepared in the assay buffer B, followed by reaction for 4 hours at 37° C.

Human MMP14 = target: T8, Human MMP14 (Homo sapiens, UniProt P50281); assay: MMP14 inhibition experiment; conditions: concentration required for 50% inhibition of enzyme activity; read-out: IC50 value MMP-14
T8 construct: purchased Biogenesis or Calbiochem 5980-1461 or 475935
Method in brief: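 Fluorescence assay: substrate Dnp-Pro-Cha-Gly-Cys(Me)-His-Ala-Lys(Nma)-NH2 (20 μM before equal-volume mixing) incubated at 37° C for 5 hours with 4 ng human MMP14.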

Human MMP17 = target: T9, Human MMP17 (Homo sapiens, UniProt Q9ULZ9); assay: MMP17 inhibition test; conditions: concentration required for 50% inhibition of enzyme activity; read-out: IC50 value MMP-17
T9 construct: purchased Calbiochem 475940
T9 sequence (Q9ULZ9 126-300 limits assumed): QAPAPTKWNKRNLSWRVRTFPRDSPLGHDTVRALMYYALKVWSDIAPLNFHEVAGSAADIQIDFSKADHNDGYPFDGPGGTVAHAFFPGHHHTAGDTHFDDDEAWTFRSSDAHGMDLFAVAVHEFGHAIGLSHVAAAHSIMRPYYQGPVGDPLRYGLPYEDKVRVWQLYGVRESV

[1] = concentration required for 50% inhibition of enzyme activity

T6 sequence (P14780 107-707 limits assumed): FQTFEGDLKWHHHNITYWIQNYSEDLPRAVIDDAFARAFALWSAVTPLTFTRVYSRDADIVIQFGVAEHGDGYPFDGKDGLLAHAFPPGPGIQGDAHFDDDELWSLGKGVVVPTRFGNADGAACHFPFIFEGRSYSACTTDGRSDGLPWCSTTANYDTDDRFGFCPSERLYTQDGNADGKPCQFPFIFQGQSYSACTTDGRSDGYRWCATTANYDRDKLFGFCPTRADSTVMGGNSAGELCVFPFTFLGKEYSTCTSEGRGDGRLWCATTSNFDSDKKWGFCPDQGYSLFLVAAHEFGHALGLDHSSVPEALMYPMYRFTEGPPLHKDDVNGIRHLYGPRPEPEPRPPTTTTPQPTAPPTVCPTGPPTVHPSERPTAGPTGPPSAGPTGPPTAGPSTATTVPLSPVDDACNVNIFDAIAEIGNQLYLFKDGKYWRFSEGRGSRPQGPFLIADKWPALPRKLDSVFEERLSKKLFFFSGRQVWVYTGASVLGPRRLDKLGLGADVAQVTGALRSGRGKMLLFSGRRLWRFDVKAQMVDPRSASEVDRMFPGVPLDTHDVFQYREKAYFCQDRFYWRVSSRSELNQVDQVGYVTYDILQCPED
T4 sequence (P08254 100-272 limits assumed): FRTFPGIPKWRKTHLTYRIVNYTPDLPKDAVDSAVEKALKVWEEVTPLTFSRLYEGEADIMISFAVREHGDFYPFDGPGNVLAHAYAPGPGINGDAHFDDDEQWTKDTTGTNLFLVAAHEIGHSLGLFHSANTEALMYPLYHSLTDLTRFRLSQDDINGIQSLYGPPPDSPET
T1 sequence (P78536 215-824): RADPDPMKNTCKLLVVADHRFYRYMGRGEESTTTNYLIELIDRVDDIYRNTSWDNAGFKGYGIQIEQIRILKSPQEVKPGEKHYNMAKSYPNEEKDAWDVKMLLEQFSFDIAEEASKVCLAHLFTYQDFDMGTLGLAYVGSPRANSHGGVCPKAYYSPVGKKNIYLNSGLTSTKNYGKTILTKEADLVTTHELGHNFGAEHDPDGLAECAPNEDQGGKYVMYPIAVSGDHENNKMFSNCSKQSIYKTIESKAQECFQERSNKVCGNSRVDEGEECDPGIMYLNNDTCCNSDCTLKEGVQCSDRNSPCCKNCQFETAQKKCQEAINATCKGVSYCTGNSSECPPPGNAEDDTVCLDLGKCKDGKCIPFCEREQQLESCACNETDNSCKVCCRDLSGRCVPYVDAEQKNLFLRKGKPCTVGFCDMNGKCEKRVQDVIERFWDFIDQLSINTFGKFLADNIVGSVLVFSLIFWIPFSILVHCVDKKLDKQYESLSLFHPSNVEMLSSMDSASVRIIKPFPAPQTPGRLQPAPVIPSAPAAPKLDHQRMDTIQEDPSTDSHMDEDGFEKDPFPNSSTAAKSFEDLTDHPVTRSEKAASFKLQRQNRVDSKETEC
T5 sequence (P22894 101-467): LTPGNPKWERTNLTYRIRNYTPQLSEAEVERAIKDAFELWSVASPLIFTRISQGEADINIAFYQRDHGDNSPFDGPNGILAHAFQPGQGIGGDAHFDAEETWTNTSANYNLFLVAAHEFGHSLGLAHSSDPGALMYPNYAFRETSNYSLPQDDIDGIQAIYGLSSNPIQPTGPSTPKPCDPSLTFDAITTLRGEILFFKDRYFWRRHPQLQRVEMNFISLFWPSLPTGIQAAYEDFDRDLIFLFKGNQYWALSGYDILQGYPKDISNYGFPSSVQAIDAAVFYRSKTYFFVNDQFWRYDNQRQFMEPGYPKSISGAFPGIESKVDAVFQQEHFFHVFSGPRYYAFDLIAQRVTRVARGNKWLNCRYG

Structure (SMILES)	IC50 (TACE) [µM]	IC50 (Human MMP1) [µM]	IC50 (Human MMP2) [µM]	IC50 (Human MMP3) [µM]	IC50 (Human MMP8) [µM]	IC50 (Human MMP9) [µM]	IC50 (Human MMP13) [µM]	IC50 (Human MMP14) [µM]	IC50 (Human MMP17) [µM]	IC50 (Human MMP1; [1]) [µM]	IC50 (Human MMP9; [1]) [µM]
Cc1cccc(CCC(CS(=O)(=O)c2ccc(OCc3cc(C)nc4ccccc34)cc2)N(O)C=O)c1 (stereo not drawn) [Example I-39]	0.21	73	30	24	> 100	36	26	43	25	–	–
Cc1cccc(CCC(CS(=O)(=O)c2ccc(OCc3cc(C)nc4ccccc34)cc2)N(O)C=O)n1 (stereo not drawn) [Example I-129]	0.012	> 100	12	3.1	33	> 100	17	50	3.4	–	–
Cc1ccc(C(C)(CS(=O)(=O)c2ccc(OCc3cc(C)nc4ccccc34)cc2)N(O)C=O)cc1 (stereo not drawn) [Example I-57]	0.012	42	> 100	6	> 100	60	33	33	4.6	–	–
Cc1cc(COc2ccc(S(=O)(=O)CC(CCc3cccnc3)N(O)C=O)cc2)c2ccccc2n1 (stereo not drawn) [Example I-56]	0.004	70	3.1	1	7.2	55	6.4	42	1.2	–	–
Cc1cc(COc2ccc(S(=O)(=O)CC(C3CCCN(C(=O)c4ccccc4)C3)N(O)C=O)cc2)c2ccccc2n1 (stereo not drawn) [Example I-131]	0.02	47	4.4	0.2	4.1	50	3.2	22	0.1	–	–
Cc1cc(COc2ccc(S(=O)(=O)CC(N(O)C=O)C3(C)CCC4(CC3)OCCO4)cc2)c2ccccc2n1 (stereo not drawn) [Example I-47]	0.03	> 100	22	0.6	15	> 100	18	60	0.4	–	–
COCc1cc(COc2ccc(S(=O)(=O)CC(c3ccccc3C)N(O)C=O)cc2)cc(C)n1 (stereo not drawn) [Example I-117]	0.62	> 100	12	20	20	> 100	28	> 100	22	–	–
CCC(CC)CN1CCC(CC(CS(=O)(=O)c2ccc(OCc3cc(C)nc4ccccc34)cc2)N(O)C=O)CC1 (stereo not drawn) [Example I-71]	0.02	> 100	0.78	0.4	10	38	1.4	70	0.06	–	–
Cc1cccc(C(CS(=O)(=O)c2ccc(OCc3cc(C)nc4ccc(F)cc34)cc2)N(O)C=O)n1 (stereo not drawn) [Example I-149]	0.03	> 100	95	26	> 100	> 100	35	90	23	–	–
COCc1cc(COc2ccc(S(=O)(=O)CC(C=C3CCOCC3)N(O)C=O)cc2)cc(C)n1 (stereo not drawn) [Example I-116]	0.16	> 100	26	70	28	> 100	39	> 100	42	–	–
CC(=O)N1CCCC(C(CS(=O)(=O)c2ccc(OCc3cc(C)nc4ccccc34)cc2)N(O)C=O)C1 (stereo not drawn) [Example I-133]	0.026	> 100	28	1.7	18	> 100	25	–	0.9	–	–
O=CN(O)C(C=C1CCC(=O)CC1)CS(=O)(=O)c1ccc(OCc2ccc3ccccc3n2)cc1 (stereo not drawn) [Example I-84]	0.55	> 100	6.6	78	> 100	–	28	90	42	–	–
Cc1cc(COc2ccc(S(=O)(=O)CC(C=C3CCOCC3)N(O)C=O)cc2)c2ccccc2n1 (single isomer, unassigned) [Example I-34, N-hydroxy-N-{2-[4-(2-methylquinolin-4-ylmethoxy)benzenesulfonyl]-1-(tetrahydropyran-4-ylidenemethyl)ethyl}formamide]	–	–	> 100	> 100	> 100	–	> 100	> 100	40	> 100	> 100
Cc1cc(COc2ccc(S(=O)(=O)CC(C=C3CCOCC3)N(O)C=O)cc2)c2ccccc2n1 (single isomer, unassigned) [Example I-33, N-hydroxy-N-{2-[4-(2-methylquinolin-4-ylmethoxy)benzenesulfonyl]-1-(tetrahydropyran-4-ylidenemethyl)ethyl}formamide]	–	> 100	28	4.2	23	> 100	32	77	2.2	–	–
Cc1cc(COc2ccc(S(=O)(=O)CC(CC3CCC(=NO)CC3)N(O)C=O)cc2)c2ccccc2n1 (stereo not drawn) [Example I-27]	–	50	–	–	8	–	–	30	–	–	–
Cc1cc(COc2ccc(S(=O)(=O)CC(C=C3CCOCC3)N(O)C=O)cc2)c2ccccc2n1 (stereo not drawn) [Example I-9, N-Hydroxy-N-{2-[4-(2-methylquinolin-4-ylmethoxy)benzenesulfonyl]-1-(tetrahydropyran-4-ylidenemethyl)ethyl}formamide]	–	> 100	60	5.5	37.5	–	25	70	3	–	53
Cc1cc(COc2ccc(S(=O)(=O)CC(CC3CCC(=NO)CC3)N(O)C=O)cc2)cc(C)n1 (stereo not drawn) [Example I-112]	0.063	> 100	1.3	4	–	40	2	60	4	–	–
